Experimental data from US7838498B2, “Benzylic glycoside derivatives and methods of use” (Theracos, Inc., priority 2007, dated 2010).

Assays:
human SGLT2 = target: T1, human SGLT2 (Homo sapiens, UniProt P31639); assay: Methyl-α-D-[U-14C]glucopyranoside uptake assay, cells stably expressing human SGLT2; assay type: cell-based; settings: HEK293.ETN cells expressing human SGLT2, 1.5 h incubation
T1 construct: A full-length cDNA clone expressing human SGLT2 (GenScript Corporation) was subcloned
T1 sequence (P31639 1-672): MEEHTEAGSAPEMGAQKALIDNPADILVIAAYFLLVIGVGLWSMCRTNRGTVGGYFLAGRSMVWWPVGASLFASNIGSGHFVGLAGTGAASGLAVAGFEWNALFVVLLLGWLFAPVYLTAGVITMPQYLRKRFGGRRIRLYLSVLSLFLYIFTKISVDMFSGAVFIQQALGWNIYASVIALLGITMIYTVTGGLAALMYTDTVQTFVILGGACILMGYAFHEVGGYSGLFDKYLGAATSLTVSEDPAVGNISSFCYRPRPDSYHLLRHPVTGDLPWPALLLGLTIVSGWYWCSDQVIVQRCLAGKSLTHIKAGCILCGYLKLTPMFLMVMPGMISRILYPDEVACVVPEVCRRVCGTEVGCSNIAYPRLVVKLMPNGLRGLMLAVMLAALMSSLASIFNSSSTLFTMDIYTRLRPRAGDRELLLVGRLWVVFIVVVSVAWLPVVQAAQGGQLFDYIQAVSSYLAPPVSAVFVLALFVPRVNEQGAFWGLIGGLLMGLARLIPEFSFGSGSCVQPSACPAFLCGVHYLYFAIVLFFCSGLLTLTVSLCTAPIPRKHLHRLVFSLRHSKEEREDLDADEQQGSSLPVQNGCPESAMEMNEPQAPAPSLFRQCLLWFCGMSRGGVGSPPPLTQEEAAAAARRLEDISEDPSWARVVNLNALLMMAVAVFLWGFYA
Text: A full-length cDNA clone expressing human SGLT2 (GenScript Corporation) was subcloned into […] and Not I sites of pEAK15 expression vector. Clones harboring the cDNA inserts were identified by restriction analysis.
Plasmid containing human SGLT2 was linearized with Nsi I and purified by agarose gel electrophoresis. Using Lipofectamine 2000 Transfection Reagent (Invitrogen Corporation), DNA was transfected into HEK293.ETN cells and cultured in Dulbecco's Modified Eagle Medium (DMEM) containing 10% fetal bovine serum (FBS) at 37° C. under 5% CO2 for 24 h. Transfectants were selected in the same growth medium supplemented with puromycin (Invitrogen Corporation) for two weeks. Puromycin-resistant cells were recovered and seeded on a fresh 96-well plate (single cell per well) and cultured in the presence of puromycin until cells became confluent. Puromycin-resistant clones were evaluated for SGLT2 activity in the methyl-α-D-[U-^14C]glucopyranoside uptake assay described below.
(§1) Cells expressing SGLT1 or SGLT2 were seeded on 96-well ScintiPlate scintillating plates (PerkinElmer, Inc.) in DMEM containing 10% FBS (1×10^5 cells per well in 100 μL medium) incubated at 37° C. under 5% CO2 for 48 h prior to the assay. Cells were washed twice with 150 μL of either sodium buffer (137 mM NaCl, 5.4 mM KCl, 2.8 mM CaCl2, 1.2 mM MgCl2, 10 mM tris(hydroxymethyl)aminomethane/N2-hydroxyethylpiperazine-N′-ethanesulfonic acid [Tris/Hepes], pH 7.2) or sodium-free buffer (137 mM N-methyl-glucamine, 5.4 mM KCl, 2.8 mM CaCl2, 1.2 mM MgCl2, 10 mM Tris/Hepes, pH 7.2). Test compound in 50 μL each of sodium or sodium-free buffer containing 40 μCi/L methyl-α-D-[U-^14C]glucopyranoside (Amersham Biosciences/GE Healthcare), either with (symbols in parentheses) or without (symbols without parentheses) 25% human serum, was added per well of a 96-well plate and incubated at 37° C. with shaking for either 2 h (SGLT1 assay) or 1.5 h (SGLT2 assay). Cells were washed twice with 150 μL of wash buffer (137 mM N-methylglucamine, 10 mM Tris/Hepes, pH 7.2) and methyl-α-D-[U-^14C]glucopyranoside uptake was quantitated using a TopCount scintillation counter (PerkinElmer, Inc.). Sodium-dependent glucopyranoside uptake was measured by subtracting the values obtained with sodium-free buffer from those obtained using sodium buffer (average of triplicate determinations).

human SGLT1 = target: T2, human SGLT1 (Homo sapiens, UniProt P13866); assay: Methyl-α-D-[U-14C]glucopyranoside uptake assay, COS-7 cells expressing human SGLT1; assay type: cell-based; settings: COS-7 cells expressing human SGLT1, 2 h incubation
T2 construct: Full-length human SGLT1 cDNA on pDream2.1 expression vector was obtained from GenScript Corporation; host or cells: COS-7 cells (American Type Culture Collection)
T2 sequence (P13866 1-664): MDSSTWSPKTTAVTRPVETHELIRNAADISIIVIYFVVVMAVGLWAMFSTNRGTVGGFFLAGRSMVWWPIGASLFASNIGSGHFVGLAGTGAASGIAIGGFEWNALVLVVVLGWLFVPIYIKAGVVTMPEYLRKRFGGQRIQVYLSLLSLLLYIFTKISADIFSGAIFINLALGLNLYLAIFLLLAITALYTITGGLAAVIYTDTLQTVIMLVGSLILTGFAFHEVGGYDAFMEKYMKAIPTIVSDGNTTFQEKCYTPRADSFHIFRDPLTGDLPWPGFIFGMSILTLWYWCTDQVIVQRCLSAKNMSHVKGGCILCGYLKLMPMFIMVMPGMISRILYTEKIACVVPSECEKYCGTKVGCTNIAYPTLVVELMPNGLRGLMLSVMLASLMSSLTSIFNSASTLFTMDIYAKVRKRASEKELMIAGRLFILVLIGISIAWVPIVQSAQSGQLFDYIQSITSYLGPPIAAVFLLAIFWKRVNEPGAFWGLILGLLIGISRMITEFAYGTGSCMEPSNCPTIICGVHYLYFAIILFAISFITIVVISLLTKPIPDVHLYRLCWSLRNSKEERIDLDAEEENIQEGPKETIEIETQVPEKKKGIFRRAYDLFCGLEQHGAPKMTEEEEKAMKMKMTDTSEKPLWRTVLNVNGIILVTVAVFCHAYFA
Description: Full-length human SGLT1 cDNA on pDream2.1 expression vector was obtained from GenScript Corporation and propagated in Escherichia coli strain DH5α using Luria-Bertani (LB) medium containing ampicillin. Plasmid DNA was isolated using the QIAGEN Plasmid Midi Kit (QIAGEN Inc.). […] Transfected cells were stored in DMEM containing 10% dimethyl sulfoxide (DMSO) at −80° C.
as §1

[1] = without human serum (symbols without parentheses)
[2] = with 25% human serum (symbols in parentheses)

Structure (SMILES) | IC50 (human SGLT2; [1]) | IC50 (human SGLT1; [1]) | IC50 (human SGLT2; [2]) | IC50 (human SGLT1; [2])
CC#CCOCc1cc(Cl)c(Cc2ccc(OCC)cc2)cc1[C@@H]1O[C@H](CO)[C@@H](O)[C@H](O)[C@H]1O [Compound AY, (2S,3R,4R,5S,6R)-2-(2-((but-2-ynyloxy)methyl)-4-chloro-5-(4-ethoxybenzyl)phenyl)-6-(hydroxymethyl)tetrahydro-2H-pyran-3,4,5-triol] | < 1000 nM | > 10000 nM | – | –
C=CCOCCOc1cc(Cl)c(Cc2ccc(CC)cc2)cc1[C@@H]1O[C@H](CO)[C@@H](O)[C@H](O)[C@H]1O [Compound AW, (2S,3R,4R,5S,6R)-2-(2-(2-(allyloxy)ethoxy)-4-chloro-5-(4-ethylbenzyl)phenyl)-6-(hydroxymethyl)tetrahydro-2H-pyran-3,4,5-triol] | < 1000 nM | > 10000 nM | – | –
C#CCOCc1cc(Cl)c(Cc2ccc(OCC)cc2)cc1[C@@H]1O[C@H](COC(C)=O)[C@@H](O)[C@H](O)[C@H]1O [Compound CD, ((2R,3S,4R,5R,6S)-6-(4-chloro-5-(4-ethoxybenzyl)-2-((prop-2-ynyloxy)methyl)phenyl)-3,4,5-trihydroxytetrahydro-2H-pyran-2-yl)methyl acetate] | – | – | < 1000 nM | > 10000 nM

Continued, values first:

IC50 (human SGLT2; [1]) | IC50 (human SGLT1; [1]) | IC50 (human SGLT2; [2]) | IC50 (human SGLT1; [2]) | Structure (SMILES)
< 1000 nM | 1000 to 10000 nM | – | – | CCc1ccc(Cc2cc([C@@H]3O[C@H](CO)[C@@H](O)[C@H](O)[C@H]3O)c(CCOCCF)cc2Cl)cc1 [Compound AH, (2S,3R,4R,5S,6R)-2-(4-chloro-5-(4-ethylbenzyl)-2-(2-(2-fluoroethoxy)ethyl)phenyl)-6-(hydroxymethyl)tetrahydro-2H-pyran-3,4,5-triol]
< 1000 nM | > 10000 nM | – | – | C#CCOCCc1cc(Cl)c(Cc2ccc(CC)cc2)cc1[C@@H]1O[C@H](CO)[C@@H](O)[C@H](O)[C@H]1O [Compound AM, (2S,3R,4R,5S,6R)-2-(4-chloro-5-(4-ethylbenzyl)-2-(2-(prop-2-ynyloxy)ethyl)phenyl)-6-(hydroxymethyl)tetrahydro-2H-pyran-3,4,5-triol]
< 1000 nM | > 10000 nM | – | – | CCc1ccc(Cc2cc([C@@H]3O[C@H](CO)[C@@H](O)[C@H](O)[C@H]3O)c(COCC(F)F)cc2Cl)cc1 [Compound R, (2S,3R,4R,5S,6R)-2-(4-chloro-2-((2,2-difluoroethoxy)methyl)-5-(4-ethylbenzyl)phenyl)-6-(hydroxymethyl)tetrahydro-2H-pyran-3,4,5-triol]
< 1000 nM | > 10000 nM | – | – | CCc1ccc(Cc2cc([C@@H]3O[C@H](CO)[C@@H](O)[C@H](O)[C@H]3O)c(COCCF)cc2Cl)cc1 [Compound BZ, (2S,3R,4R,5S,6R)-2-(4-chloro-5-(4-ethylbenzyl)-2-((2-fluoroethoxy)methyl)phenyl)-6-(hydroxymethyl)tetrahydro-2H-pyran-3,4,5-triol]
